The compounds below were run against PIK3CG (human) (UniProt P48736) (assay: Inhibition of PIK3CG Kinase Activity). Details: not given.
Chain of PIK3CG (human) (P48736 whole entry, looked up): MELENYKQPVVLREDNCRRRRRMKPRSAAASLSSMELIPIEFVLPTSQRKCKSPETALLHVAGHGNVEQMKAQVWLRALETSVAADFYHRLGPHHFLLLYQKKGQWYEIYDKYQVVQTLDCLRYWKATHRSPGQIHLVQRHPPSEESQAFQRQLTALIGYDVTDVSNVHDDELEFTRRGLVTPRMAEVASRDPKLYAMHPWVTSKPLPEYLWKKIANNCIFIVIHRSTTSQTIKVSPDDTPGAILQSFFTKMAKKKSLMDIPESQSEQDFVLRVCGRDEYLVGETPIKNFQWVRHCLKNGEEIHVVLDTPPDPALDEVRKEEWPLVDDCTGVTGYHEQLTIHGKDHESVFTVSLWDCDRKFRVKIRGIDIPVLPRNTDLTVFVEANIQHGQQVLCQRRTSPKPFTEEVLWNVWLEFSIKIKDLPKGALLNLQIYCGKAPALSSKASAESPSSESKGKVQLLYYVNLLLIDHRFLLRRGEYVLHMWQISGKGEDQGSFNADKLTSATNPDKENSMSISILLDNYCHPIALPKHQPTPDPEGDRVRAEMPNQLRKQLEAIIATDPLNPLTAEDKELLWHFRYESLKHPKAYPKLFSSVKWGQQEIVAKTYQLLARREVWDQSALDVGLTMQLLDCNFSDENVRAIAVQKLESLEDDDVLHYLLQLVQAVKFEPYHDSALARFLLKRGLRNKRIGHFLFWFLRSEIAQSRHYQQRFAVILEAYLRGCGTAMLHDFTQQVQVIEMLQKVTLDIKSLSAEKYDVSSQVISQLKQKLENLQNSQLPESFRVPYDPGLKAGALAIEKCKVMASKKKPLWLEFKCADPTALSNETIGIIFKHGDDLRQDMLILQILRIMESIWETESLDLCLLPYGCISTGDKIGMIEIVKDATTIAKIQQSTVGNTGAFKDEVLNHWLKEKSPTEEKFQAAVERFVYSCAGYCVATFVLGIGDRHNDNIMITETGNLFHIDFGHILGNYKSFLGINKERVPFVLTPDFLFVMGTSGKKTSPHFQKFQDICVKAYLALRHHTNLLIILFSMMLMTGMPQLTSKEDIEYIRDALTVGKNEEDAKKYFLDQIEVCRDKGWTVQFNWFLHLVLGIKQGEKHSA

| Structure (SMILES) | IC50 | Ki |
| --- | --- | --- |
| Cc1cc(-c2sc(NC(=O)NCC(=O)N(C)C)nc2C)nc([S+](C)[O-])n1 (stereo not drawn) | 16 nM |  |
| COc1cc2sc(C(=O)Nc3nnn[nH]3)c(OC3C[C@@H](C)C[C@@H](C)C3)c2cc1OC (stereo partly drawn) | 32 nM |  |
| Cc1cc(NC(=O)CCNC(=O)Nc2cn3cc(Br)ccc3n2)no1 |  | 4980 nM |
| COc1ccc(-c2ccc3nc(N)cn3n2)cc1OC | < 200 nM |  |
| CC(=O)Nc1nc(C)c(-c2csc(Nc3cccc(-c4nnn[nH]4)c3)n2)s1 | 9 nM |  |
| COC[C@H]1OC(=O)c2coc3c2[C@@]1(C)C1=C(C3=O)[C@@H]2CCC(=O)[C@@]2(C)C[C@H]1O | 26 nM |  |
| CC(C)n1nnc(CCNC(=O)Nc2cn3cc(-c4cnc5ccccc5c4)ccc3n2)n1 |  | 570 nM |
| OCc1cccc(-c2nc(N3CCOCC3)c3cnn(C4CCNCC4)c3n2)c1 | 510 nM |  |
| CCN(CC)C(C)=C1C(=O)O[C@H](COC)[C@@]2(C)C1=C(O)C(=O)C1=C2[C@H](OC(C)=O)C[C@]2(C)C(=O)CC[C@@H]12 | 80 nM |  |
| CC(C)(C)NS(=O)(=O)c1cncc(-c2ccc3nc(N)cn3n2)c1 | < 200 nM |  |
| COc1ccc(OC)c(Nc2nc3ccccc3nc2NS(=O)(=O)c2cccnc2)c1 | 56 nM |  |
| COc1cc2c(O[C@H]3C[C@@H](C)CC(C)(C)C3)c(C(=O)Nc3nn[nH]n3)sc2cc1C | 9 nM |  |
| Oc1cccc(-c2nc(N3CCOCC3)c3[nH]cc(C4CCN(Cc5ccc(Cl)nc5)CC4)c3n2)c1 | 1450 nM |  |
| COc1ccc(OC)c(Nc2nc3ncccc3nc2NS(=O)(=O)c2ccccc2)c1 | 73 nM |  |
| COc1ccc(OC)c(Nc2nc3ccccc3nc2NS(=O)(=O)c2ccc3c(c2)sc(=O)n3C)c1 | 240 nM |  |
| Cn1ncc2c(Nc3ccc(C(N)=O)cc3)nc(Nc3ccc(NC(=O)Nc4cccnc4)cc3)nc21 | 68 nM |  |
| CC(C)n1nnc(CCNC(=O)Nc2cn3cc(-c4cncc(F)c4)ccc3n2)n1 |  | 168 nM |

Same assay, conditions: concentration not given here

| Structure (SMILES) | inhibition |
| --- | --- |
| O=C1NC(=O)/C(=C/c2ccc(-c3ccc4ccccc4n3)o2)S1 | 13% |

The compounds below were run against ROCK2 (human) (UniProt O75116) (assay: Inhibition of ROCK2 Kinase Activity). Details: not given.
Chain of ROCK2 (human) (O75116 whole entry, looked up): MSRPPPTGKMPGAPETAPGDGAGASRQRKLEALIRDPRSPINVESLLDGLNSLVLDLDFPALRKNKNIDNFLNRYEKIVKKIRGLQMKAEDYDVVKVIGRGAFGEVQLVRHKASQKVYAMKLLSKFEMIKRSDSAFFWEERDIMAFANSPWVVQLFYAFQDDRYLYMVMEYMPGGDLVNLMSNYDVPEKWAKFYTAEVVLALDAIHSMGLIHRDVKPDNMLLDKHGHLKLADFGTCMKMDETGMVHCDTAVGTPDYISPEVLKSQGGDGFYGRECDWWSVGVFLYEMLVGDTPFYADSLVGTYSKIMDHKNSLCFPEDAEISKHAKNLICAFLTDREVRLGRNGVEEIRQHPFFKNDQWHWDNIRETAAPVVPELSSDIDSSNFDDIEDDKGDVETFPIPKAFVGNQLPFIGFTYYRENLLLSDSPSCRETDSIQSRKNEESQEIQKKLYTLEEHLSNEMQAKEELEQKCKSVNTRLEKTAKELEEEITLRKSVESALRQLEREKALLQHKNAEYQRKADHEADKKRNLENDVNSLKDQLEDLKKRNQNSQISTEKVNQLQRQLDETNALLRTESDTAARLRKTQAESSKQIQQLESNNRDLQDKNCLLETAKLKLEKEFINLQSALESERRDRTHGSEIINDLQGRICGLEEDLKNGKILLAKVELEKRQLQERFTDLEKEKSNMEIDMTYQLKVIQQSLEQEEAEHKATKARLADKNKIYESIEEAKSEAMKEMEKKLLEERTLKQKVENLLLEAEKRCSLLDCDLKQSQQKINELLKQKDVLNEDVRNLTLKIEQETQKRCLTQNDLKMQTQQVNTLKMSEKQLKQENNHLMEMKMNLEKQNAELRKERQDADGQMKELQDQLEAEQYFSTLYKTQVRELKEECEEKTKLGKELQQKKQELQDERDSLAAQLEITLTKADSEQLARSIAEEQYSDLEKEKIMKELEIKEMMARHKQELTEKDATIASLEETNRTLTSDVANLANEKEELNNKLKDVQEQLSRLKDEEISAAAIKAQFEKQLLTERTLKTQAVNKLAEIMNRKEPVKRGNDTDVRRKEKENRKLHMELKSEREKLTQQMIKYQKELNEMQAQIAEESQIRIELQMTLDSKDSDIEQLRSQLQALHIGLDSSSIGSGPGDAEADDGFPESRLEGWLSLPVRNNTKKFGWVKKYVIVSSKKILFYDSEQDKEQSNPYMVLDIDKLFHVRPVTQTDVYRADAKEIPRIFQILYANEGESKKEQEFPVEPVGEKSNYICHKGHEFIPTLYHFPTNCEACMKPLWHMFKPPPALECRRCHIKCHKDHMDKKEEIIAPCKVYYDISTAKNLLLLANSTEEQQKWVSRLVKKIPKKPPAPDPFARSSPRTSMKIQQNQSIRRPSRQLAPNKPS

| Structure (SMILES) | IC50 | Ki |
| --- | --- | --- |
| Nc1nc(Nc2ccc(Cc3ccnc4[nH]ccc34)c(F)c2)cc(C(F)(F)F)n1 | 7 nM |  |
| COc1cccc(CNC(=O)c2c[nH]c3cc(-c4cn[nH]c4)ccc23)c1 | < 1 nM |  |
| C[C@H]1CN(C(=O)CN)CCCN1S(=O)(=O)c1cccc2cncc(F)c12 | 32.1 nM |  |
| Nc1nc(Nc2ccc(Oc3ccc4cn[nH]c4c3)c(F)c2)cc(-c2ccncc2)n1 | 100 nM |  |
| Nc1nc(Nc2cc(F)c(Sc3ccncc3)c(F)c2)cc(N2C[C@H]3CCCN[C@H]3C2)n1 | 5 nM |  |
| CNCC(=O)N1CCCN(S(=O)(=O)c2cccc3cncc(F)c23)[C@@H](C)C1 | 29 nM |  |
| COCCN(C(=O)c1cccc(CNC(=O)c2ccc(OC)c(OC)c2)c1)c1ccc2c(c1)CNCC2 | 99 nM |  |
| CSCc1ccc(CN2CCCC(Nc3ccc4[nH]ncc4c3)C2)cc1 (stereo not drawn) | 1310 nM |  |
| C[C@@H](NC(=O)Nc1nc(-c2ccncc2)cs1)c1ccccc1 | 12 nM |  |
| Nc1nc(Nc2ccc(Sc3ccncc3)c(F)c2)cc(-c2ccc3ncccc3c2)n1 | 7 nM |  |
| Cc1c[nH]c2nccc(Nc3ccc(Nc4cc(C(F)(F)F)nc(N)n4)cc3F)c12 | 4 nM |  |
| C[C@@H](N)[C@]1(C)CC[C@@H](C(=O)Nc2ccncc2)CC1 |  | 300 nM |
| NCC1(c2ccc(OC(F)(F)F)cc2)CCN(c2ncnc3[nH]ccc23)CC1 | < 30 nM |  |
| COc1cccc(CNC(=O)Nc2nc(-c3ccncc3)cs2)c1 | 10 nM |  |
| CN1CCCN(c2nc(-c3ccc4cn[nH]c4c3)cnc2N)CC1 | > 100 nM |  |
| NCC1(c2ccc(Cl)cc2)CCN(c2ncnc3[nH]ccc23)CC1 | < 100 nM |  |
| COc1cccc(CN(CCN(C)C)C(=O)c2nc3ccc(-c4cn[nH]c4)cc3s2)c1 | < 1 nM |  |
| Nc1nc(Nc2cc(F)c(Sc3ccncc3)c(Cl)c2)cc(N2C[C@H]3CCCN[C@H]3C2)n1 | 6 nM |  |
| c1c[nH]c(CN2CCC[C@@H](Nc3ccc4[nH]ncc4c3)C2)n1 |  | 1.3 nM |
| Cc1c[nH]c2nccc(Nc3ccc(Nc4cc(Cl)nc(N)n4)cc3F)c12 | 3 nM |  |
| Nc1nccc2cc(CNCCc3ccccc3)ccc12 | 3160 nM |  |
| Nc1nc(Nc2ccc(Sc3ccncc3)c(F)c2)cc(Oc2cccc(Cl)c2)n1 | 70 nM |  |
| O=C(C(O)c1ccc(Br)cc1)N1CCN(c2ccc3[nH]ncc3c2)CC1 (stereo not drawn) | 90 nM |  |
| Nc1nc(Nc2ccc(Sc3ccncc3)c(F)c2)cc(N2C[C@H]3CCCN[C@H]3C2)n1 | 11 nM |  |
| C[C@@H](N)c1ccc(C(=O)Nc2ccncc2)cc1 | 390 nM |  |
| OC[C@@H](O)COc1cccc(CN2CCC[C@H](Nc3ccc4[nH]ncc4c3)C2)c1 | 323 nM |  |
| O=C(NCc1ccc(F)cc1)Nc1nc(-c2ccncc2)cs1 | 19 nM |  |
| c1cc2ccc(CN3CCC[C@@H](Nc4ccc5[nH]ncc5c4)C3)cc2[nH]1 |  | 6.3 nM |
| O=C([C@H](O)c1cccc(Cl)c1)N1CCN(c2ccc3[nH]ncc3c2)CC1 | 100 nM |  |
| CN1CCCN(c2nc(-c3ccncc3)cnc2N)CC1 | 3100 nM |  |
